Here are results for nine molecules from ChEMBL document CHEMBL1129744, “Novel imidazothioxanthones: Synthesis, DNA binding and cytotoxicity” (Bioorg Med Chem Lett, 1996).

For one data set, the system named is MAC15A. The data set can be described thus: Compound was evaluated for cytotoxicity against Mac15A cell lines. It counts as functional, cell-based. The note with it: Mus musculus.
For data set [1], the system named is A2780. The data set can be described thus: Compound was evaluated for cytotoxicity against A2780 cell lines. The class given is functional, cell-based. Conditions: Homo sapiens.
A short description of data set [2]: Compound was evaluated for induced thermal stabilization for compound: DNA ratio of 1:5 at 0.1 to 0.2 degrees Centigrade. Also noted: unit: °C.
Data set [3] is described as follows: Compound was evaluated for induced thermal stabilization for compound: DNA ratio of 1:10 at 0.1 to 0.2 degrees Centigrade. Also noted: unit: °C.
Data set [4] has as its system A2780. Put plainly: Compound was evaluated for cytotoxicity against A2780 cis cell lines. Conditions: Homo sapiens. It counts as functional, cell-based.
A further data set deals with SK-OV-3. Put plainly: Compound was evaluated for cytotoxicity against SCOV-3 cell lines. It counts as functional, cell-based. Conditions: Homo sapiens.
The test system of the next data set is MOLT-4. The data set can be described thus: Compound was evaluated for cytotoxicity against MOLT-4 cell lines. It counts as functional, cell-based. The note with it: Homo sapiens.
The next data set has as its system HOP-92. The data set can be described thus: Compound was evaluated for cytotoxicity against HOP-92 cell lines. The class given is functional, cell-based. Conditions: Homo sapiens.
A further data set concerns SW-620. Put plainly: Compound was evaluated for cytotoxicity against SW-620 cell lines. The class given is functional, cell-based. The note with it: Homo sapiens.
The subject of a further data set is MCF7. The data set can be described thus: Compound was evaluated for cytotoxicity against MCF-7 cell lines. It counts as functional, cell-based. Conditions: Homo sapiens.
Another data set deals with WEHI. Put plainly: Compound was evaluated for cytotoxicity against WEHI cell lines. It counts as functional, cell-based. The note with it: Mus musculus.

pIC50: −log10 of the molar value.

In the case of `O=C(NCCN1CCCCC1)c1cn2c(ccc3sc4ccccc4c(=O)c32)n1`, the pIC50 (commonly the negative decadic logarithm of the IC50, by convention in mol/L) is 6.74 in the data set on MAC15A, 6.25 in the data set on A2780 [1], 6.19 in the data set with A2780 [4] and 5.11 with SK-OV-3. The “Change in Tm” value in [2] was 10.5; in data set [3] it was 6.
As to `O=C(NCCN1CCCC1)c1cn2c(ccc3sc4ccccc4c(=O)c32)n1`, the pIC50 is 6.33 with MOLT-4; 5.35 in the data set on A2780 [1]; 4.80 with HOP-92; 5.82 in the data set on SW-620; 5.22 in the data set on A2780 [4]; 6.21 in the data set with MCF7. The molecule further had a negative logarithm of the IC50 (pIC50) with SK-OV-3 of 4.54. Also, the “Change in Tm” value in data set [2] is on record as 6.5; in data set [3], 3.4.
Consider `CN(C)CCCNC(=O)c1cn2c(ccc3sc4ccccc4c(=O)c32)n1`, for which the negative-log IC50 (pIC50) in the data set with MAC15A was 6.30; in the data set with WEHI, 6.52; in the data set on MOLT-4, 6.38; in the data set with A2780 [1] it was 6.27; in the data set on HOP-92, 6.44; in the data set with SW-620, 5.84. In addition, the pIC50 was 6.12 with A2780 [4], 4.95 with MCF7 and 5.67 in the data set with SK-OV-3. For the same molecule, the “Change in Tm” value in [2] came out at 10.4; in data set [3] it was 5.7.
As to `CCOC(=O)c1cn2c(ccc3sc4ccccc4c(=O)c32)n1`, the negative-log IC50 (pIC50) with WEHI was below 4.00; with MOLT-4, below 4.00; in the data set on A2780 [1] it was below 4.00; in the data set with HOP-92, 4.06; in the data set on SW-620 it was below 4.00; with A2780 [4] it was below 4.00. Also, the negative-log IC50 (pIC50) in the data set on MCF7 is 4.07; with SK-OV-3, below 4.00. In addition, the results for the “Change in Tm” value in data set [2] and in [3] were 1.2 and 0.5, respectively.
On to `O=C(NCCN1CCOCC1)c1cn2c(ccc3sc4ccccc4c(=O)c32)n1`, for which the pIC50 was 5.48 in the data set on MOLT-4; 5.24 in the data set with A2780 [1]; 4.89 with HOP-92; 5.31 in the data set on SW-620; 5.12 with A2780 [4]; 5.15 with MCF7. In the data set on SK-OV-3, this molecule showed a pIC50 of 4.64. Also, the “Change in Tm” value in [2] worked out at 2.9; in data set [3], 1.6.
For the molecule `Nc1ccc2cc3ccc(N)cc3nc2c1` [PROFLAVINE], the “Change in Tm” value came out at 11.5 in [2] and 6.3 in data set [3].
For `CCN(CC)CCCNC(=O)c1cn2c(ccc3sc4ccccc4c(=O)c32)n1`, the values for the pIC50 with A2780 [1], in the data set on A2780 [4] and with SK-OV-3 were 6.37, 6.32 and 5.78, respectively. In addition, the “Change in Tm” value was 12.4 in data set [2] and 7 in [3].
For the molecule `O=C(c1cn2c(ccc3sc4ccccc4c(=O)c32)n1)N1CCN(CCO)CC1`, the pIC50 is 6.38 with MAC15A, 6.13 with A2780 [1], 5.74 with A2780 [4] and 4.87 in the data set with SK-OV-3. The “Change in Tm” value was determined as 3.5 in [2] and 1.9 in data set [3].
For the molecule `O=C1c2c(O)ccc(O)c2C(=O)c2c(NCCNCCO)ccc(NCCNCCO)c21` [MITOXANTRONE], in the data set with A2780 [1], the negative-log IC50 (pIC50) was 5.26. Further, the “Change in Tm” value in [2] is recorded as above 25; in [3] it was 15.
